# Patent publication US20120316203A1, “Compositions and Methods for Inhibition of Cancers” (THE OHIO STATE UNIVERSITY RESEARCH FOUNDATION, priority 2009, published 2012)
# Key:
# [1] = tested on: A2780, A2780R, MCF-7, HCT-116, PC-3, HepG2, A549, and SCC4 human cancer cell lines; experiment: Cytotoxicity of DAPs to cancer cells (MTT); type: cell-based; settings: 10 μM, 24 h
# Method: Cell viability was determined by a colorimetric assay using MTT. In the mitochondria of living cells, yellow MTT undergoes a reductive conversion to formazan, giving a purple color. Cells, grown to […] confluence in 75-mm flasks, were trypsinized, counted, seeded in 96-well plates with an average population of 7000 cells/well, incubated overnight, and then treated with the DAPs (H-4073, HO-3867, H4318, or HO-4200; […]) for 24 h. All experiments were done using eight replicates and repeated at least three times. Cell viability was expressed as the percentage of MIT viability of untreated cells.
# [2] = tested on: pSTAT3 (Tyr705 and Ser727), cleaved caspase-3 and PARP in A2780, A549, HepG2, MCF-7, HCT-116 cells; experiment: Western blot of STAT3 signaling and apoptotic markers in cancer cells; type: cell-based, human; settings: 10 μM, 24 h
# Method: Cells were grown in RPMI 1640 medium and treated with DMSO (control) or HO-3867 ([…]). Equal volumes of DMSO (0.1% v/v) were present in both groups. After treatment, cell lysates were prepared in nondenaturing lysis buffer (10 mM Tris-HCl (pH 7.4), 150 mM NaCl, 1% Triton X-100, 1 mM EDTA, 1 mM EGTA, 0.3 mM phenylmethylsulfonyl fluoride, 0.2-mM sodium orthovanadate, 0.5% NP-40, 1 lag/ml aprotinin, and 1 lag/ml leupeptin). Cell lysates were centrifuged at 10,000 RPM for 20 min at 4° C., and the supernatant was separated. The protein concentration in the lysates was determined using a Pierce detergent-compatible protein assay kit. For Western blotting, 25 to 50 lag of protein lysate per sample was denatured in 2× sample buffer and subjected to SDS-PAGE on a 10 or 12% Tris-glycine gel. The separated proteins were transferred to a PVDF membrane and then the membrane was blocked with 5% nonfat milk powder (w/v) in 10 mM Tris, 100 mM NaCl, 0.1% Tween 20 for 1 h at room temperature or overnight at 4° C. The membranes were incubated with the primary antibodies described above. The bound antibodies were detected with horseradish peroxidase (HRP)-labeled sheep anti-mouse IgG or HRP-labeled donkey anti-rabbit IgG (Amersham) using an enhanced chemiluminescence detection system (ECL Advanced Kit). Protein expression was determined using Image Gauge version 3.45.
# [3] = tested on: FAS and FAK in A2780 and SKOV3 cells; experiment: FAS and FAK protein and mRNA expression in ovarian cancer cells; type: cell-based, human; settings: 10 μM
# Method: Cells in RPMI 1640 medium were treated with DMSO (control) or HO-3867 (10 μM) for 24 h. Equal volumes of DMSO (0.1% v/v) were present in each treatment. Following treatment, the cell lysates were prepared in nondenaturing lysis buffer containing 10-mM Tris-HCl (pH 7.4), 150-mM NaCl, 1% Triton X-100, 1-mM EDTA, 1-mM EGTA, 0.3-mM phenylmethylsulfonyl fluoride, 0.2-mM sodium orthovanadate, 0.5% NP40, 1-μg/ml aprotinin, and 1-μg/ml leupetin. The lysates were centrifuged at 10,000×g for 20 min at 4° C., and the supernatant was separated. The protein concentration in the lysates was determined using a Pierce detergent-compatible protein assay kit. For Western blotting, 25 to 50 μg of protein lysate per sample was denatured in 2×SDS-PAGE sample buffer and subjected to SDS-PAGE on a 10% tris-glycine gel. […] The bound antibodies were detected with horseradish peroxidase (HRP)-labeled sheep anti-mouse IgG or HRP-labeled donkey anti-rabbit IgG using an enhanced chemiluminescence detection system (ECL Advanced kit). Protein expressions were determined using Image Gauge version 3.45.
# Total RNA isolated from ovarian tumor tissue was prepared with TRIzol (Life Technologies, Grand Island, N.Y.) according to the manufacturer's instructions. RNA quantification was done using spectrophotometry. […]
smiles,measurement,setting,value
"CC1(C)C=C(CN2C/C(=C\c3ccc(F)cc3)C(=O)/C(=C/c3ccc(F)cc3)C2)C(C)(C)N1O [HO-3867, 1-[(1-oxyl-2,2,5,5-tetramethyl-2,5-dihydro-1H-pyrrol-3-yl)methyl]-(3E,5E)-3,5-bis(4-fluorobenzylidene)piperidin-4-one]",cell viability of human cancer cell lines,[1],substantial loss of cell viability
same,Tyr705 and Ser727 pSTAT3 levels in cancer cells,[2],significantly attenuated
same,activated caspase-3 and PARP in cancer cells,[2],significant elevation
same,"FAS and FAK, protein and expression levels",[3],incubation-time-dependent inhibition
